Measurements: the Kinase Knowledgebase extract (Sharma et al. 2016)
≈ marks a conversion by molar mass, not a printed value.

Target: EGFR (UniProt P00533)
Sequence (P00533 whole entry, looked up): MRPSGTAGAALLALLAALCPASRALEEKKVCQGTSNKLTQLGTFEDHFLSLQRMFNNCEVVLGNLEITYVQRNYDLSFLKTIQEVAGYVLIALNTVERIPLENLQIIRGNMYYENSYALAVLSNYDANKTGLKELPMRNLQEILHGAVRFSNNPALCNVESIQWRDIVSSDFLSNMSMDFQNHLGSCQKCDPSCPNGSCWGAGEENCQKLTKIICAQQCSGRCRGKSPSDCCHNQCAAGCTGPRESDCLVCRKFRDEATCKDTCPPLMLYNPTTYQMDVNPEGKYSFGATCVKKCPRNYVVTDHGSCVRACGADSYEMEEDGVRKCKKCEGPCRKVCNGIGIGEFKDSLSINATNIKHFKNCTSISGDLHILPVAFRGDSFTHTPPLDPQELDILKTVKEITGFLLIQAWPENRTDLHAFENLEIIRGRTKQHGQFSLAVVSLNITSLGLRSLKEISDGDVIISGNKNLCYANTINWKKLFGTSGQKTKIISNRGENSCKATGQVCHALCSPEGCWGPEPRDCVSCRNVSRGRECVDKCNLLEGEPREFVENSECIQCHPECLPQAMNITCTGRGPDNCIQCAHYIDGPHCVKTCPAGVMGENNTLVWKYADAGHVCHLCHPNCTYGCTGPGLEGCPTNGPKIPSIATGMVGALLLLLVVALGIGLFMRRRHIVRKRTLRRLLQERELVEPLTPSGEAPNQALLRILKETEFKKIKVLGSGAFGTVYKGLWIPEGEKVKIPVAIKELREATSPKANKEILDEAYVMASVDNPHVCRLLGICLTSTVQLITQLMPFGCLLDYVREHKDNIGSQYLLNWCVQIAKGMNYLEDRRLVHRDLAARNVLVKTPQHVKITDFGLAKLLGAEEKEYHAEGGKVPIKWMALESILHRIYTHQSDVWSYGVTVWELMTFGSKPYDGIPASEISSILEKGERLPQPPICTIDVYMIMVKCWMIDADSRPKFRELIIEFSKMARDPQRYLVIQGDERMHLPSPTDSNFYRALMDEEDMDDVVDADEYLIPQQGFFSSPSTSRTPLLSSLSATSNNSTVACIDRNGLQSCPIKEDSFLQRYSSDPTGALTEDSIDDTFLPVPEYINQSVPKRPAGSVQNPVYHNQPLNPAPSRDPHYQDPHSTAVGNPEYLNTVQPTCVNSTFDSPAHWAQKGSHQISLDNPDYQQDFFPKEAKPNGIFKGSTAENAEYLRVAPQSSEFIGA

IC50 [µg/mL] | SMILES
> 4.5 | Nc1ncnc(Nc2ccc(C3CCCCC3)cc2)n1
< 0.4 | NC(=O)c1cccc(Nc2ncnc(Nc3cc(-c4ccco4)n[nH]3)n2)c1
2.4 to 3.5 (≈ 4.86 to 7.09 µM) | COc1cc(Nc2ncnc(-n3c(=O)[nH]c4ccccc43)n2)cc(OC)c1OCCN1CCOCC1
> 4.5 | COc1cc(Nc2ncnc(Cl)n2)cc(OC)c1OC
> 4.5 | COc1cc(Nc2ncnc(-c3cc4ccccc4s3)n2)cc(OC)c1OC
> 4.5 | COc1cc(Nc2ncnc(-n3c(NCc4ccc(O)cc4)nc4ccccc43)n2)cc(OC)c1OC
> 4.5 | COC(=O)n1c(=O)n(-c2ncnc(Nc3cc(OC)c(OC)c(OC)c3)n2)c2ccccc21
> 4.5 | CC(=O)Nc1ccc(Nc2ncnc(-n3c(N)nc4ccccc43)n2)cc1
> 4.5 | COc1cc(Nc2ncnc(-c3ccncc3)n2)cc(OC)c1OC
< 0.4 | CN(c1ccc2c(cnn2Cc2ccccc2)c1)c1ncnc(Nc2cccc(Cc3nnn[nH]3)c2)n1
> 4.5 | Brc1ccc(Nc2ncnc(-n3cccc3)n2)cc1
> 4.5 | COc1cc(Nc2ncnc(-n3c(NC(=O)c4ccccc4)nc4ccccc43)n2)cc(OC)c1OC
> 4.5 | COC(=O)c1cccc(Nc2ncnc(-n3c(NCc4ccc(OC)cc4)nc4ccccc43)n2)c1
< 0.4 | COc1cc(Nc2ncnc(Nc3cc(C(F)(F)F)ccc3F)n2)cc(OC)c1OC
> 4.5 | COc1cc(Nc2ncnc(-c3ccsc3)n2)cc(OC)c1OC
< 0.4 | CC(=O)NS(=O)(=O)c1ccc(Nc2ncnc(N(C)c3cccc(Cl)c3)n2)cc1
0.4 to 2.4 (≈ 1.18 to 7.07 µM) | CC(C)(C)c1cc(Nc2ncnc(Nc3cccc(CO)c3)n2)[nH]n1
> 4.5 | CCOC(=O)CNc1ncnc(N2CCCc3cc(C)ccc32)n1
> 4.5 | COc1cc(Nc2ncnc(Nc3nc4ccc(F)cc4s3)n2)cc(OC)c1OC
> 4.5 | COc1ccc(Nc2ncnc(N(C)c3ccc(S(=O)(=O)O)cc3)n2)cc1OC
3.5 to 4.5 (≈ 11.2 to 14.4 µM) | COCCCNc1ncnc(N2CCCc3cc(C)ccc32)n1
> 4.5 | COc1cc(Nc2ncnc(-c3cccnc3NC3CCN(Cc4ccccc4)CC3)n2)cc(OC)c1OC

IC50 [µg/mL] | SMILES
> 4.5 | COc1cc(Nc2ncnc(-c3ccc(N(C)C)nc3)n2)cc(OC)c1OC
2.4 to 3.5 (≈ 5.29 to 7.72 µM) | Fc1ccc(CNc2ncccc2-c2ncnc(Nc3cccc(Cn4ccnn4)c3)n2)cc1
0.4 to 2.4 (≈ 0.984 to 5.9 µM) | COc1ccc(Nc2ncnc(Nc3ccc(N4CCCCC4)cc3)n2)cc1OC
< 0.4 | COc1cc(Nc2ncnc(N(C)c3cccc(Cl)c3)n2)cc2ccccc12
> 4.5 | COc1cc(Nc2ncnc(N3CCc4ccc([N+](=O)[O-])cc43)n2)cc(OC)c1OC
< 0.4 | COCCOc1cc(Nc2ncnc(Nc3ccc(C)c(O)c3)n2)ccc1OC
> 4.5 | COC(=O)c1cc(OC)c(OC)cc1Nc1ncnc(-n2c(N)nc3ccccc32)n1
< 0.4 | O=C(O)Cc1cccc(Nc2ncnc(Nc3cccc(Br)c3)n2)c1
> 4.5 | CC(C)(C)c1ccc(Nc2ncnc(-n3c(N)nc4ccccc43)n2)cc1
> 4.5 | COc1ccc2[nH]cc(CCNc3ncnc(Nc4ccc(OC)c(OC)c4)n3)c2c1
> 4.5 | COc1cccc(Nc2nc3ccccc3n2-c2ncnc(Nc3cc(OC)c(OC)c(OC)c3)n2)c1
2.4 to 3.5 (≈ 5.1 to 7.44 µM) | COc1cc(Nc2ncnc(-c3cccnc3NC3CCc4ccccc43)n2)cc(OC)c1OC (stereo unspecified)
0.4 to 2.4 (≈ 1.09 to 6.51 µM) | COc1cc(Nc2ncnc(Nc3ccc(N)cc3)n2)cc(OC)c1OC
> 4.5 | CCOC(=O)c1cccc(Nc2ncnc(Nc3cc(-c4ccc(C(=O)OC)cc4)n[nH]3)n2)c1
< 0.4 | COc1cc(Nc2ncnc(Nc3cccc(Cl)c3)n2)cc(OC)c1
> 4.5 | COC(=O)c1ccc(-c2cc(Nc3ncnc(NCc4cccnc4)n3)[nH]n2)cc1
< 0.4 | COc1cc(Nc2ncnc(N(CCO)c3ccccc3)n2)cc(OC)c1OC
0.4 to 2.4 (≈ 1.08 to 6.48 µM) | Nc1nc2ccccc2n1-c1ncnc(Nc2ccc(-c3cnco3)cc2)n1
> 4.5 | NS(=O)(=O)c1ccc(Nc2ncnc(-n3c(=O)[nH]c4ccccc43)n2)cc1
< 0.4 | O=C(O)c1cccc(Nc2ncnc(-n3c(NCc4ccccc4)nc4ccccc43)n2)c1
0.4 to 2.4 (≈ 0.799 to 4.79 µM) | CNS(=O)(=O)Cc1ccc(Nc2ncnc(Nc3ccc4c(cnn4Cc4ccccc4)c3)n2)cc1
> 4.5 | COC(=O)c1ccc(-c2cc(Nc3ncnc(NCCN4CCNC4=O)n3)[nH]n2)cc1

IC50 [µg/mL] | SMILES
< 0.4 | COc1cc(Nc2ncnc(N(CCC(C)C)c3ccc(Cl)cc3)n2)cc(OC)c1OC
< 0.4 | Fc1ccc(Nc2ncnc(Nc3ccc4cn[nH]c4c3)n2)cc1Cl
0.4 to 2.4 (≈ 0.991 to 5.94 µM) | COc1cc(Nc2ncnc(Nc3ccc(O)cc3Cl)n2)cc(OC)c1OC
> 4.5 | COc1cc(Nc2ncnc(-n3ccnc3NCc3ccccc3)n2)cc(OC)c1OC
> 4.5 | Cc1ccc2c(c1)CCCN2c1ncnc(NCCN2CCOCC2)n1
> 4.5 | COc1cc(Nc2ncnc(-n3cccc3)n2)cc(OC)c1OC
> 4.5 | COc1cc(Nc2ncnc(-n3cc(OC(C)=O)c4ccccc43)n2)cc(OC)c1OC
< 0.4 | CN(c1cccc(Cl)c1)c1ncnc(Nc2cccc(OC(F)(F)F)c2)n1
< 0.4 | COc1cc(Nc2ncnc(Nc3cccc(C)c3)n2)cc(OC)c1OC
> 4.5 | COc1ccc(Nc2ncnc(NCCCN3CCCCC3C)n2)cc1OC (stereo unspecified)
3.5 to 4.5 (≈ 6.83 to 8.78 µM) | COc1ccc(Nc2ncnc(Nc3cc(OC)c(OC)c(OC)c3)n2)cc1OCCN1CCOCC1
> 4.5 | COc1cc(Nc2ncnc(-n3c(NCc4ccccn4)nc4ccccc43)n2)cc(OCCN2CCOCC2)c1OC
0.4 to 2.4 (≈ 0.991 to 5.95 µM) | COc1cc(C)c(Nc2ncnc(Nc3cc(-c4ccccc4)n[nH]3)n2)cc1OC
> 4.5 | COC(=O)Cc1cccc(Nc2ncnc(-n3c(NCc4ccccn4)nc4ccccc43)n2)c1
< 0.4 | CN(c1cccc(Cl)c1)c1ncnc(Nc2ccc3c(cnn3C)c2)n1
> 4.5 | COc1cc(Nc2ncnc(-n3c(NCc4ncccc4C)nc4ccccc43)n2)cc(OC)c1OC
> 4.5 | COc1cc(Nc2ncnc(Nc3ccc(N(C)C(C)=O)cc3)n2)cc(OC)c1OC
> 4.5 | CN(c1cccc(Cl)c1)c1ncnc(Nc2ccc(Cl)c(Cl)c2)n1
> 4.5 | Cc1ccc2c(c1)CCCN2c1ncnc(NCc2ccccn2)n1
> 4.5 | NC(=O)Cc1cccc(Nc2ncnc(-n3c(N)nc4ccccc43)n2)c1
> 4.5 | c1ccc(Nc2ncccc2-c2ncnc(Nc3cccc(Cn4ccnn4)c3)n2)cc1
> 4.5 | Fc1ccc(Nc2ncnc(-n3cccc3)n2)cc1

IC50 [µg/mL] | SMILES
> 4.5 | COc1cc(Nc2ncnc(-n3c(N(C)C)nc4ccccc43)n2)cc(OC)c1OC
> 4.5 | COc1cc(Nc2ncnc(N3CCN(c4ncccn4)CC3)n2)cc(OC)c1OC
> 4.5 | COc1ccc(Nc2ncnc(NCc3c(C)cccc3Cl)n2)cc1OC
> 4.5 | C=CCNc1ncccc1-c1ncnc(Nc2cc(OC)c(OC)c(OC)c2)n1
0.4 to 2.4 (≈ 0.779 to 4.67 µM) | COc1cc(Nc2ncnc(-n3c(N[C@@H](CO)c4ccccc4)nc4ccccc43)n2)cc(OC)c1OC
> 4.5 | COc1cc(Nc2ncnc(-c3cccnc3Nc3cccc(C(N)=O)c3)n2)cc(OC)c1OC
2.4 to 3.5 (≈ 4.82 to 7.03 µM) | COc1cc(Nc2ncnc(-n3c(N[C@@H](C)c4ccccc4)nc4ccccc43)n2)cc(OC)c1OC
> 4.5 | COc1cc(Nc2ncnc(NN3CCCC3)n2)cc(OC)c1OC
> 4.5 | COC(=O)c1ccc(-c2cc(Nc3ncnc(NCc4ccco4)n3)[nH]n2)cc1
0.4 to 2.4 (≈ 0.987 to 5.92 µM) | CCOC(=O)Cc1ccc(Nc2ncnc(Nc3cc(-c4ccco4)n[nH]3)n2)cc1
> 4.5 | COc1cc(Nc2ncnc(-c3cccnc3Nc3ccc(Cl)cc3C)n2)cc(OC)c1OC
< 0.4 | CC(=O)c1ccc(Nc2ncnc(Nc3ccc4c(cnn4Cc4ccccc4)c3)n2)cc1
3.5 to 4.5 (≈ 6.82 to 8.76 µM) | COc1cc(Nc2ncnc(-n3c(Nc4cccc(C(=O)O)c4)nc4ccccc43)n2)cc(OC)c1OC
< 0.4 | COc1ccc(Nc2ncnc(Nc3cccc(Br)c3)n2)cc1OC
> 4.5 | O=c1[nH]c2ccccc2n1-c1ncnc(Nc2cccc(S(=O)(=O)CCO)c2)n1
< 0.4 | COc1ccc(Nc2ncnc(N(C)c3ccc(F)cc3F)n2)cc1OC
3.5 to 4.5 (≈ 9.53 to 12.2 µM) | COc1ccc(Nc2ncnc(NCC(O)c3ccccc3)n2)cc1OC (stereo unspecified)
0.4 to 2.4 (≈ 1.01 to 6.04 µM) | NC(=O)c1ccc(Nc2ncnc(-c3cccnc3NCc3ccccc3)n2)cc1
0.4 to 2.4 (≈ 0.898 to 5.39 µM) | COc1cc(Nc2ncnc(Nc3cccc(Oc4ccccc4)c3)n2)cc(OC)c1OC
< 0.4 | Fc1ccc(Nc2ncnc(Nc3ccc4[nH]ccc4c3)n2)cc1Cl
> 4.5 | CC(C)(C)OC(=O)Nc1ccc(Nc2ncnc(-c3ccccc3)n2)cc1
2.4 to 3.5 (≈ 6.3 to 9.19 µM) | COC(=O)c1cccc(Nc2ncnc(-n3c(Cl)nc4ccccc43)n2)c1

IC50 [µg/mL] | SMILES
> 4.5 | O=c1[nH]c2ccccc2n1-c1ncnc(Nc2ccc(F)c(Cl)c2)n1
> 4.5 | COc1cc(Nc2ncnc(-c3cccnc3CCN)n2)cc(OC)c1OC
> 4.5 | CCOC(=O)C(Cc1cccc(Nc2ncnc(Nc3cc(-c4ccco4)n[nH]3)n2)c1)(NC(C)=O)C(=O)OCC
> 4.5 | COc1cc(Nc2ncnc(-c3cccnc3NCc3ccccn3)n2)cc(OC)c1OC
> 4.5 | COc1cc(Nc2ncnc(-n3c(NCCc4cccnc4)nc4ccccc43)n2)cc(OC)c1OC
< 0.4 | COc1cc(Nc2ncnc(Cc3ccc4c(cnn4Cc4ccccc4)c3)n2)cc(OC)c1OCCN1CCOCC1
> 4.5 | CCOC(=O)C(Nc1nc2ccccc2n1-c1ncnc(Nc2cc(OC)c(OC)c(OC)c2)n1)c1ccccc1 (stereo unspecified)
> 4.5 | Cc1cccc(Nc2ncnc(-n3cccc3)n2)c1C
3.5 to 4.5 (≈ 15.1 to 19.5 µM) | Nc1ncnc(Nc2ccc3c(c2)OCO3)n1
> 4.5 | COc1ccc(Nc2ncccc2-c2ncnc(Nc3cc(OC)c(OC)c(OC)c3)n2)c(C)c1
> 4.5 | CC(C)(C)OC(=O)Nc1ccc(Nc2ncnc(Nc3ccc(OCc4ccccc4)cc3)n2)cc1
> 4.5 | COc1ccc(Nc2nc3ccccc3n2-c2ncnc(Nc3cc(OC)c(OC)c(OC)c3)n2)c(C)c1
> 4.5 | COc1ccc(Nc2ncnc(-c3cccs3)n2)cc1OC
< 0.4 | COc1cc(Nc2ncnc(Nc3cccc(CC(=O)O)c3)n2)cc(OC)c1OC
> 4.5 | COc1cc(Nc2ncnc(Nc3ccc(S(=O)(=O)NC(C)=O)cc3)n2)cc(OC)c1OC
< 0.4 | Cc1ccc2c(c1)CCCN2c1ncnc(Nc2ccc3c(c2)C(=O)OC3)n1
0.4 to 2.4 (≈ 1.01 to 6.03 µM) | CN(c1cccc(Cl)c1)c1ncnc(Nc2ccc(F)c(C(F)(F)F)c2)n1
> 4.5 | OCCCNc1cc(-c2ncnc(Nc3cccc(OC(F)(F)C(F)F)c3)n2)ccn1
